In patent US20230391781A1, “MALT1 MODULATORS AND USES THEREOF” (Rheos Medicines, Inc., priority 2020, published 2023):

Experiments:
[1] = test system: IL-2 in Jurkat (ATCC, clone E6.1) cells stimulated with anti-CD3/28/2; test: Jurkat IL-2 Assay; type: cell-based; settings: Homo sapiens; IL-2 inhibition, Jurkat cells, 30 min compound then anti-CD3/28/2 stimulation for 24 hours; mean value if tested more than once; read-out: IC50
Procedure: Inhibition was determined in a cell-based assay using Jurkat (ATCC, clone E6.1), an immortalized T-cell line, exposed to a dose response of compound and assessed for viability, and Il-2 inhibition by ELISA. Cells were cultured in RPMI/10% FBS (Invitrogen 11875093, Atlanta Biologicals S12450H), maintained below 3E6/mL and only used in assays while below passage 25. Compounds were stamped by ECHO onto 384w plates (PerkinElmer Culturplate, 6007680). The cells were plated in fresh media on top of compound and incubated for 30 minutes before stimulation with soluble anti-CD3/28/2 (Stemcell, 10970) for 24 hours. Supernatant was collected and assessed for Il-2 (MSD, 384w, L21SA-1). To assess viability of cells treated with compound, cells were lysed with CTG reagent (Promega, G7570), and measured by luminometer. […] IC50s calculated using 4-parameter fit in GraphPad Prism.
In this table, “A” indicates IC50 of less than 0.1 μM; “B” indicates IC50 from 0.1 μM up to 1 μM; and “C” indicates IC50 of greater than 1 μM. “N/A” indicates not tested. For a compound that was tested in more than one experiment, the result shown represents the mean value.

[2] = target: full length MALT1 (Homo sapiens (Human), UniProt Q9UDY8); test: MALT1 Biochemical Assay; settings: 15 nM enzyme, 30 μM peptide substrate Ac-Leu-Arg-Ser-Arg-Rh110-dPro, 30 min pre-incubation, 60 min reaction; mean value if tested more than once
Procedure: Inhibitor potency was evaluated by measuring enzymatic activity of full length MALT1 at varying concentrations of compound. The enzymatic assay consists of a single substrate reaction that monitors the release of a fluorescent dye upon cleavage of the peptide substrate. […] The assay buffer consists of 50 mM Hepes, pH 7.5, 0.8 M sodium citrate, 1 mM DTT, 0.004% tween-20, and 0.005% bovine serum albumin (BSA). […] The reaction was quenched after 60 minutes with the addition of iodoacetate at a final concentration of 10 mM. Total fluorescence was measured using an Envision (PerkinElmer) with fluorescence excitation at 485 nm and emission at […].
For potency determination, 1 μL of serially diluted compound (in 100% DMSO) was pre-incubated with 40 μL of enzyme for 30 minutes. The reaction was initiated with the addition of 10 μL of peptide substrate. The relative fluorescence units were transformed to percent inhibition by using 0% and 100% inhibition controls as reference. […] IC50 values were calculated by fitting the concentration-response curves to a four-parameter logistic equation in GraphPad Prism.

Chain of full length MALT1 (Q9UDY8 whole entry): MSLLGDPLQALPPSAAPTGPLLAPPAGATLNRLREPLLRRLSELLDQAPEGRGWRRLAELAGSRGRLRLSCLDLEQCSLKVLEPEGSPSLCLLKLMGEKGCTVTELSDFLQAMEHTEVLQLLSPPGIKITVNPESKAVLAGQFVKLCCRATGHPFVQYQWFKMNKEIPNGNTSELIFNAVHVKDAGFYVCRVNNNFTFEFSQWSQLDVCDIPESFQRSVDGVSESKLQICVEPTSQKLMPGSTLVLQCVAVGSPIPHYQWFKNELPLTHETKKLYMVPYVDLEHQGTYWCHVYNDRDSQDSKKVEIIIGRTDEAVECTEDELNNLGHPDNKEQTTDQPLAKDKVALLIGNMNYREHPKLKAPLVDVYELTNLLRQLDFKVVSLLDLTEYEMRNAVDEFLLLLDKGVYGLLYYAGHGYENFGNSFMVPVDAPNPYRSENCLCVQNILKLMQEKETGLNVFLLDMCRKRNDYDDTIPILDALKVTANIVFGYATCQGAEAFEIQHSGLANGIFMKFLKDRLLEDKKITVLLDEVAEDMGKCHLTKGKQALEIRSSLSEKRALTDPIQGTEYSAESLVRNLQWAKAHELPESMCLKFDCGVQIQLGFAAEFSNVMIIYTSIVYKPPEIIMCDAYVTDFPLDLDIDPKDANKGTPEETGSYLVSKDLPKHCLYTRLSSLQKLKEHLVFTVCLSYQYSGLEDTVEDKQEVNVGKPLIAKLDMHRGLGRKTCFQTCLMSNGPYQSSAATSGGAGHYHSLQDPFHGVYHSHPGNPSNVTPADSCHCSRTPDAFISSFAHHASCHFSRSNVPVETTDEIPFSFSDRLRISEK

Which IC50 [1] does the source give for `CO[C@@H](C)c1c(Nc2ccc([C@H](N(C)C(C)=O)C(F)(F)F)cc2)cnc2nc(Cl)nn12` [Compound 1.2, N-[(1S)-1-[4-({2-chloro-7-[(1S)-1-methoxyethyl]-[1,2,4]triazolo[1,5-a]pyrimidin-6-yl}amino)phenyl]-2,2,2-trifluoroethyl]-N-methylacetamide] here?
The IC50 was 0.1 to 1 µM.

What about the IC50 [2] of the same compound?
The IC50 was 0.1 to 1 µM.

How did the IC50 [1] turn out when `CO[C@@H](C)c1c(Nc2ccc([C@H](N(C)C(=O)C3CCCCO3)C(F)(F)F)cc2)cnc2nc(Cl)nn12` (stereo partly drawn) [Compound 1.3, N-[(1S)-1-[4-({2-chloro-7-[(1S)-1-methoxyethyl]-[1,2,4]triazolo[1,5-a]pyrimidin-6-yl}amino)phenyl]-2,2,2-trifluoroethyl]-N-methyloxane-2-carboxamide] was run?
The IC50 was 0.1 to 1 µM.

What about the IC50 [2] of the same compound?
Its IC50 is 0.1 to 1 µM.

How did the IC50 [1] turn out when `COC(=O)[C@H]1CC[C@H](C(=O)N(C)[C@@H](c2ccc(Nc3cnc4nc(Cl)nn4c3[C@H](C)OC)cc2)C(F)(F)F)CC1` [Compound 1.4, methyl(1r,4r)-4-{[(1S)-1-[4-({2-chloro-7-[(1S)-1-methoxyethyl]-[1,2,4]triazolo[1,5-a]pyrimidin-6-yl}amino)phenyl]-2,2,2-trifluoroethyl] (methyl)carbamoyl}cyclohexane-1-carboxylate] was run?
The IC50 was 0.1 to 1 µM.

What about the IC50 [2] of the same compound?
Its IC50 is 0.1 to 1 µM.

With `CO[C@@H](C)c1c(Nc2ccc([C@H](N(C)C(=O)C3CCSCC3)C(F)(F)F)cc2)cnc2nc(Cl)nn12` [Compound 1.5, N-[(1S)-1-[4-({2-chloro-7-[(1S)-1-methoxyethyl]-[1,2,4]triazolo[1,5-a]pyrimidin-6-yl}amino)phenyl]-2,2,2-trifluoroethyl]-N-methylthiane-4-carboxamide] as the compound, how does the IC50 [1] read?
Its IC50 is 0.1 to 1 µM.

And the IC50 [2]?
The IC50 was under 0.1 µM.

Which IC50 [1] does the source give for `CO[C@@H](C)c1c(Nc2ccc([C@H](N(C)C(=O)C3CCOC3)C(F)(F)F)cc2)cnc2nc(Cl)nn12` (stereo partly shown) [Compound 1.6] here?
Its IC50 is 0.1 to 1 µM.

And the IC50 [2]?
Its IC50 is under 0.1 µM.

With `CO[C@@H](C)c1c(Nc2ccc([C@H](N(C)C(=O)C3CCC4(CC3)OCCO4)C(F)(F)F)cc2)cnc2nc(Cl)nn12` [Compound 1.7, N-[(1S)-1-[4-({2-chloro-7-[(1S)-1-methoxyethyl]-[1,2,4]triazolo[1,5-a]pyrimidin-6-yl}amino)phenyl]-2,2,2-trifluoroethyl]-N-methyl-1,4-dioxaspiro[4.5]decane-8-carboxamide] as the compound, how does the IC50 [1] read?
Its IC50 is 0.1 to 1 µM.

What about the IC50 [2] of the same compound?
The IC50 was under 0.1 µM.

For `CO[C@@H](C)c1c(Nc2ccc([C@H](N(C)C(=O)[C@H]3C[C@H](C#N)C3)C(F)(F)F)cc2)cnc2nc(Cl)nn12` [Compound 1.9, (1r,3S)—N—((S)-1-(4-((2-chloro-7-((S)-1-methoxyethyl)-[1,2,4]triazolo[1,5-a]pyrimidin-6-yl)amino)phenyl)-2,2,2-trifluoroethyl)-3-cyano-N-methylcyclobutane-1-carboxamide], which IC50 [1] is on record?
Its IC50 is 0.1 to 1 µM.

And the IC50 [2]?
Its IC50 is 0.1 to 1 µM.

`CO[C@@H](C)c1c(Nc2ccc([C@H](N(C)C(=O)C3CCN(C(=O)OC(C)(C)C)CC3)C(F)(F)F)cc2)cnc2nc(Cl)nn12` [Compound 1.10, tert-butyl 4-{[(1S)-1-[4-({2-chloro-7-[(1S)-1-methoxyethyl]-[1,2,4]triazolo[1,5-a]pyrimidin-6-yl}amino)phenyl]-2,2,2-trifluoroethyl](methyl)carbamoyl}piperidine-1-carboxylate] was tested. Which IC50 [1] did it give?
Its IC50 is 0.1 to 1 µM.

And the IC50 [2]?
Its IC50 is 0.1 to 1 µM.

`CO[C@@H](C)c1c(Nc2ccc([C@H](N(C)C(=O)C3CCCN(C(=O)OC(C)(C)C)C3)C(F)(F)F)cc2)cnc2nc(Cl)nn12` (stereo partly drawn) [Compound 1.11, Tert-butyl 3-{[(1S)-1-[4-({2-chloro-7-[(1S)-1-methoxyethyl]-[1,2,4]triazolo[1,5-a]pyrimidin-6-yl}amino)phenyl]-2,2,2-trifluoroethyl](methyl)carbamoyl}piperidine-1-carboxylate] was tested. Which IC50 [1] did it give?
The IC50 was over 1 µM.

What about the IC50 [2] of the same compound?
Its IC50 is 0.1 to 1 µM.

For `CO[C@@H](C)c1c(Nc2ccc([C@H](N(C)C(=O)C3CCN(C(=O)OC(C)(C)C)C3)C(F)(F)F)cc2)cnc2nc(Cl)nn12` (stereo partly drawn) [Compound 1.12, Tert-butyl 3-{[(1S)-1-[4-({2-chloro-7-[(1S)-1-methoxyethyl]-[1,2,4]triazolo[1,5-a]pyrimidin-6-yl}amino)phenyl]-2,2,2-trifluoroethyl](methyl)carbamoyl}pyrrolidine-1-carboxylate], which IC50 [1] is on record?
The IC50 was over 1 µM.

And the IC50 [2]?
The IC50 was 0.1 to 1 µM.

How did the IC50 [1] turn out when `CO[C@@H](C)c1c(Nc2ccc([C@H](N(C)C(=O)C3CCC(CNC(=O)OC(C)(C)C)CC3)C(F)(F)F)cc2)cnc2nc(Cl)nn12` (stereo partly drawn) [Compound 1.13, tert-butyl N-[(4-{[(1S)-1-[4-({2-chloro-7-[(1S)-1-methoxyethyl]-[1,2,4]triazolo[1,5-a]pyrimidin-6-yl}amino)phenyl]-2,2,2-trifluoroethyl](methyl)carbamoyl}cyclohexyl)methyl]carbamate] was run?
Its IC50 is 0.1 to 1 µM.

And the IC50 [2]?
Its IC50 is 0.1 to 1 µM.

With `CO[C@@H](C)c1c(Nc2ccc([C@H](N(C)C(=O)[C@H]3CC[C@H](OC)CC3)C(F)(F)F)cc2)cnc2nc(Cl)nn12` [Compound 1.14, (1r,4S)—N—((S)-1-(4-((2-chloro-7-((S)-1-methoxyethyl)-[1,2,4]triazolo[1,5-a]pyrimidin-6-yl)amino)phenyl)-2,2,2-trifluoroethyl)-4-methoxy-N-methylcyclohexane-1-carboxamide] as the compound, how does the IC50 [1] read?
The IC50 was 0.1 to 1 µM.

And the IC50 [2]?
Its IC50 is under 0.1 µM.

For `COC(=O)NC1CCC(C(=O)N(C)[C@@H](c2ccc(Nc3cnc4nc(Cl)nn4c3[C@H](C)OC)cc2)C(F)(F)F)CC1` (stereo partly drawn) [Compound 1.16, methyl (4-(((S)-1-(4-((2-chloro-7-((S)-1-methoxyethyl)-[1,2,4]triazolo[1,5-a]pyrimidin-6-yl)amino)phenyl)-2,2,2-trifluoroethyl)(methyl)carbamoyl)cyclohexyl)carbamate], which IC50 [1] is on record?
Its IC50 is 0.1 to 1 µM.

And the IC50 [2]?
Its IC50 is under 0.1 µM.

For `CO[C@@H](C)c1c(Nc2ccc([C@H](N(C)C(=O)C3CCC(NC(C)=O)CC3)C(F)(F)F)cc2)cnc2nc(Cl)nn12` (stereo partly drawn) [Compound 1.17, N-[(1S)-1-[4-({2-chloro-7-[(1S)-1-methoxyethyl]-[1,2,4]triazolo[1,5-a]pyrimidin-6-yl}amino)phenyl]-2,2,2-trifluoroethyl]-4-acetamido-N-methylcyclohexane1-carboxamide], which IC50 [1] is on record?
Its IC50 is 0.1 to 1 µM.

And the IC50 [2]?
Its IC50 is under 0.1 µM.

Which IC50 [1] does the source give for `CO[C@@H](C)c1c(Nc2ccc(C(C)N(C)C(=O)C3CCC3)cc2)cnc2nc(Cl)nn12` (stereo partly drawn) [Compound 1.20, N-{1-[4-({2-chloro-7-[(1S)-1-methoxyethyl]-[1,2,4]triazolo[1,5-a]pyrimidin-6-yl}amino)phenyl]ethyl}-N-methylcyclobutanecarboxamide] here?
The IC50 was over 1 µM.

What about the IC50 [2] of the same compound?
The IC50 was over 1 µM.

`CO[C@@H](C)c1c(Nc2ccc(C(C)N(C)C(=O)C3CCCCC3)cc2)cnc2nc(Cl)nn12` (stereo partly drawn) [Compound 1.21, N-{1-[4-({2-chloro-7-[(1S)-1-methoxyethyl]-[1,2,4]triazolo[1,5-a]pyrimidin-6-yl}amino)phenyl]ethyl}-N-methylcyclohexanecarboxamide] was tested. Which IC50 [1] did it give?
The IC50 was over 1 µM.

What about the IC50 [2] of the same compound?
Its IC50 is over 1 µM.

How did the IC50 [1] turn out when `CO[C@@H](C)c1c(Nc2ccc(C(C)N(C)C(=O)C3CCCC3)cc2)cnc2nc(Cl)nn12` (stereo partly drawn) [Compound 1.22, N-{1-[4-({2-chloro-7-[(1S)-1-methoxyethyl]-[1,2,4]triazolo[1,5-a]pyrimidin-6-yl}amino)phenyl]ethyl}-N-methylcyclopentanecarboxamide] was run?
The IC50 was over 1 µM.

What about the IC50 [2] of the same compound?
Its IC50 is over 1 µM.

Which IC50 [1] does the source give for `CO[C@@H](C)c1c(Nc2ccc(C(C)N(C)C(=O)C3CC3)cc2)cnc2nc(Cl)nn12` (stereo partly drawn) [Compound 1.23, N-{1-[4-({2-chloro-7-[(1S)-1-methoxyethyl]-[1,2,4]triazolo[1,5-a]pyrimidin-6-yl}amino)phenyl]ethyl}-N-methylcyclopropanecarboxamide] here?
Its IC50 is over 1 µM.

What about the IC50 [2] of the same compound?
The IC50 was over 1 µM.

For `CO[C@@H](C)c1c(Nc2ccc(C(C)N(C)C(C)=O)cc2)cnc2nc(Cl)nn12` (stereo partly drawn) [Compound 1.24, N-{1-[4-({2-chloro-7-[(1S)-1-methoxyethyl]-[1,2,4]triazolo[1,5-a]pyrimidin-6-yl}amino)phenyl]ethyl}-N-methylacetamide], which IC50 [1] is on record?
Its IC50 is over 1 µM.

And the IC50 [2]?
Its IC50 is over 1 µM.

What does the source list for `CO[C@@H](C)c1c(Nc2ccc(C(N(C)C(C)=O)C(F)(F)F)cc2)cnc2nc(Cl)nn12` (stereo partly drawn) [Compound 1.25, N-{1-[4-({2-chloro-7-[(1S)-1-methoxyethyl]-[1,2,4]triazolo[1,5-a]pyrimidin-6-yl}amino)phenyl]-2,2,2-trifluoroethyl}-N-methylacetamide]?
IC50 [1]: > 1 µM; IC50 [2]: 0.1 to 1 µM
